Results on five molecules are retold here after patent US20090233950A1, “QUINAZOLINE DERIVATIVES” (priority 2006, published 2009).

One assay addresses T1, KDR (VEGFR2) (Homo sapiens, UniProt P35968).
T1 construct: phosphorylation of KDR expressed in human umbilical vein endothelial cells (HUVECs); host or cells: HUVECs
Put plainly: In vitro phospho-KDR ELISA assay (Test (c)), HUVECs stimulated with VEGF. It counts as cell-based. To be noted: read-out: IC50 versus phospho-tyrosine formation in KDR. As for the experimental part:
(c) In Vitro phospho-KDR ELISA Assay
This assay uses a conventional ELISA method to determine the ability of test compounds to inhibit phosphorylation of tyrosine in KDR (VEGFR2).
Human umbilical vein endothelial cells (HUVECs; PromoCell) were routinely incubated at 37° C. with 7.5% CO2 in ‘growth medium’ comprising MCDB 131 (Gibco Catalogue No. 10372-019; 500 ml) containing L-glutamine (Sigma Catalogue No. G3126; 0.848 g), 1% Penicillin Streptomycin (Gibco Catalogue No. 15140-122) and Fetal Bovine Serum (PAA Laboratories Catalogue No. A15-043; 50 ml).
For the assay, the cells were detached from the culture flask using a trypsin/ethylenediaminetetraacetic acid (EDTA) mixture (Invitrogen Ltd.; Catalogue No. 15400-054) and resuspended in ‘test medium’ comprising MCDB 131 (500 ml) containing L-glutamine (0.848 g), 1% Penicillin Streptomycin and Fetal Bovine Serum (10 ml). Aliquots (1 ml) were seeded into each well of a 24 well tissue culture plate (Corning Life Sciences; Catalogue No. 3527) to give a density of approximately 3.5×10^4 cells per well. The cells were incubated overnight at 37° C. with 7.5% CO2 to allow adherence to the well surface. The following morning the assay medium was decanted and an aliquot (0.5 ml) of ‘serum free medium’ comprising MCDB 131 (500 ml) containing L-glutamine (0.848 g) and 1% Penicillin Streptomycin was added to each well. The plates were incubated at 37° C. for 2.5 hours.
Test compounds were prepared as 10 mM stock solutions in DMSO and serially diluted with DMSO as required. Aliquots (3 μl) of each concentration of test compound were diluted with ‘serum free medium’ (300 μl). Aliquots (50 μl) of each resultant compound concentration were added to the cells in each well. “Maximum” control cells received only a dilution of DMSO whereas the “minimum” controls received a reference KDR inhibitor to give a final concentration of 1 μM. The cells were incubated for 90 minutes at 37° C. with 7.5% CO2.
The resultant cells were stimulated with VEGF using the following procedure. A lyophilised powder of VEGF (Sigma-Aldrich; Catalogue No. V7259) was mixed with PBS containing 0.1% filter-sterilised BSA (0.1% BSA/PBS) to provide a stock solution of 10 μg/ml of VEGF. A dilution of this stock solution into ‘serum free medium’ provided a 1000 ng/ml VEGF solution. Aliquots thereof (50 μl) were added to all wells. The cells were incubated at 37° C. with 7.5% CO2 for 5 minutes. The solution from the wells was removed and the cells were lysed by the addition of 100 μl/well of RIPA buffer comprising 60 mM Tris-HCl, 150 mM sodium chloride, 1 mM EDTA, 1% v/v Igepal CA-630, 0.25% sodium deoxycholate, 1% v/v phosphatase inhibitor cocktail 1 P2850, 1% phosphatase inhibitor cocktail 2 P5726 and 0.5% v/v protease inhibitor cocktail P8340. […]
(In general: An ELISA detects its analyte on a solid surface through an enzyme-linked reagent.)

The target in the next assay is T2, PDGFRβ (Homo sapiens, UniProt P09619).
T2 construct: endogenous in cells; host or cells: MG63 osteosarcoma cells (ATCC)
Put plainly: In vitro phospho-Tyr751 PDGFRβ ELISA assay (Test (b)), MG63 osteosarcoma cells stimulated with PDGFBB. To be noted: read-out: IC50 versus phospho-Tyr751 formation in PDGFRβ. It counts as cell-based. As for the experimental part:
(b) In Vitro phospho-Tyr751 PDGFRβ ELISA Assay
This assay uses a conventional ELISA method to determine the ability of test compounds to inhibit phosphorylation of tyrosine in PDGFRβ.
An MG63 osteosarcoma cell line [American Type Culture Collection (ATCC) CCL 1427] was routinely maintained at 37° C. with 7.5% CO2 in Dulbecco's modified Eagle's growth medium (DMEM; Sigma-Aldrich; Catalogue No. D6546) containing 10% foetal calf serum (FCS; Sigma-Aldrich; Catalogue No. F7524) and 2 mM L-glutamine (Invitrogen Ltd., Paisley, UK; Catalogue No. 25030-024).
For the assay, the cells were detached from the culture flask using a trypsin/ethylenediaminetetraacetic acid (EDTA) mixture (Invitrogen Ltd.; Catalogue No. 15400-054) and resuspended in a test medium comprising DMEM without phenol red (Sigma-Aldrich; Catalogue No. D5921) containing 1% charcoal-stripped foetal calf serum (FCS) (Sigma-Aldrich; Catalogue No. F7524, stripped by incubation with dextran-coated activated charcoal at 55° C. for 30 minutes with continuous stirring followed by removal of the charcoal by centrifugation and filter sterilisation) and 2 mM L-glutamine (Invitrogen Ltd., Catalogue No. 25030-024) to give 6×10^4 cells per ml. Aliquots (100 μl) were seeded into each of the wells of columns […] (excluding column 1) and rows B-G (excluding rows A and H) of a clear 96 well tissue culture plate (Corning Life Sciences, Koolhovenlaan, The Netherlands; Catalogue No. 3595) to give a density of about 6000 cells per well. Aliquots (100 μl) of culture media were placed in the outer wells to minimise edge effects. The cells were incubated overnight at 37° C. with 7.5% CO2 to allow the cells to adhere to the wells.
Test compounds were prepared as 10 mM stock solutions in DMSO and serially diluted as required with DMSO to give a range of concentrations. Aliquots (3 μl) of each compound concentration were added to test medium (300 μl) to create a second dilution range. Aliquots (16 μl) of each resultant compound concentration were added to the cells in each well. “Maximum” control cells received a dilution of DMSO plus test medium only. “Minimum” control cells received a reference PDGFR inhibitor (16 μl). The cells were incubated for 90 minutes at 37° C. with 7.5% CO2.
The resultant cells were stimulated with PDGFBB using the following procedure. A lyophilised powder of PDGFBB, (Sigma-Aldrich; Catalogue No. P4306) was mixed with sterile water to provide a stock solution of 10 μg/ml of PDGFBB. A dilution of this stock solution into test medium provided a 182 ng/ml PDGFBB solution. Aliquots thereof (44 μl) were added to compound treated cells and to the “Maximum” control cells. The “Minimum” control cells received medium only. The cells were incubated at 37° C. with 7.5% CO2 for 5 minutes. The solution from the wells was removed and the cells were lysed by the addition of 120 μl/well of RIPA buffer comprising 60 mM tris(hydroxymethyl)aminomethane hydrochloride (Tris-HCl), 150 mM sodium chloride, 1 mM EDTA, 1% v/v Igepal CA-630, 0.25% sodium deoxycholate, 1% v/v phosphatase inhibitor cocktail 1 P2850, 1% phosphatase inhibitor cocktail 2 P5726 and 0.5% v/v protease inhibitor cocktail P8340 (all chemicals and inhibitor cocktails were obtainable from the Sigma-Aldrich Company Ltd.). The resultant tissue culture plates were shaken for 5 minutes at ambient temperature to ensure full lysis and then frozen at −20° C. until required. […]

Some results are limits rather than exact numbers.

T2 sequence (P09619 33-1106): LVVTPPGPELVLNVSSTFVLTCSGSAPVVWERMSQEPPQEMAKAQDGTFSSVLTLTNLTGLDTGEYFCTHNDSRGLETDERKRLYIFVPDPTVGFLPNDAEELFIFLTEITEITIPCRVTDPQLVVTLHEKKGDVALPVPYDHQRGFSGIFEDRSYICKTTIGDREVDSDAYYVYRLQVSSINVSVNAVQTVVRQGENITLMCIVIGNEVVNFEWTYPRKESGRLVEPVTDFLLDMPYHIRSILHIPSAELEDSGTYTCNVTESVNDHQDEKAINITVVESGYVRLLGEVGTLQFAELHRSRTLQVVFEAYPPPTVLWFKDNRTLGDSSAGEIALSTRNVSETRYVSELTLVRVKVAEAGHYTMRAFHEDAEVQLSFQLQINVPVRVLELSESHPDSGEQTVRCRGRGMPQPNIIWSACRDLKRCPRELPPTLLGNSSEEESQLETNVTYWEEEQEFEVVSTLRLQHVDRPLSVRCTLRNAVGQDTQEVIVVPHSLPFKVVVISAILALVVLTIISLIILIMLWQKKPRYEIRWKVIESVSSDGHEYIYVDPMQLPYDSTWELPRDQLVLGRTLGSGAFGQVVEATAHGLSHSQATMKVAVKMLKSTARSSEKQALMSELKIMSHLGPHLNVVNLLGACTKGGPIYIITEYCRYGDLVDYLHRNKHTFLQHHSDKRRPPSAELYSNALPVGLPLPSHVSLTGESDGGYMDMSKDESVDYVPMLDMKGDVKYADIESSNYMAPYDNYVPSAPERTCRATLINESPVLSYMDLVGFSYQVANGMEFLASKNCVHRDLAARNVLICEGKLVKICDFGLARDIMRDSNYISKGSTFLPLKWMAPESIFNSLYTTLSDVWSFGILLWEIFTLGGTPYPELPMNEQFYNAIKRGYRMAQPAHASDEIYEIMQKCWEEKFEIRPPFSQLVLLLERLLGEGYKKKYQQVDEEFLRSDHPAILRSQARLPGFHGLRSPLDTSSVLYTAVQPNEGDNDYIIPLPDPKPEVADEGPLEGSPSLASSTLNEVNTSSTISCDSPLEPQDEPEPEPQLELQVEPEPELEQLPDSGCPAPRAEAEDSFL
T1 sequence (P35968 20-1356): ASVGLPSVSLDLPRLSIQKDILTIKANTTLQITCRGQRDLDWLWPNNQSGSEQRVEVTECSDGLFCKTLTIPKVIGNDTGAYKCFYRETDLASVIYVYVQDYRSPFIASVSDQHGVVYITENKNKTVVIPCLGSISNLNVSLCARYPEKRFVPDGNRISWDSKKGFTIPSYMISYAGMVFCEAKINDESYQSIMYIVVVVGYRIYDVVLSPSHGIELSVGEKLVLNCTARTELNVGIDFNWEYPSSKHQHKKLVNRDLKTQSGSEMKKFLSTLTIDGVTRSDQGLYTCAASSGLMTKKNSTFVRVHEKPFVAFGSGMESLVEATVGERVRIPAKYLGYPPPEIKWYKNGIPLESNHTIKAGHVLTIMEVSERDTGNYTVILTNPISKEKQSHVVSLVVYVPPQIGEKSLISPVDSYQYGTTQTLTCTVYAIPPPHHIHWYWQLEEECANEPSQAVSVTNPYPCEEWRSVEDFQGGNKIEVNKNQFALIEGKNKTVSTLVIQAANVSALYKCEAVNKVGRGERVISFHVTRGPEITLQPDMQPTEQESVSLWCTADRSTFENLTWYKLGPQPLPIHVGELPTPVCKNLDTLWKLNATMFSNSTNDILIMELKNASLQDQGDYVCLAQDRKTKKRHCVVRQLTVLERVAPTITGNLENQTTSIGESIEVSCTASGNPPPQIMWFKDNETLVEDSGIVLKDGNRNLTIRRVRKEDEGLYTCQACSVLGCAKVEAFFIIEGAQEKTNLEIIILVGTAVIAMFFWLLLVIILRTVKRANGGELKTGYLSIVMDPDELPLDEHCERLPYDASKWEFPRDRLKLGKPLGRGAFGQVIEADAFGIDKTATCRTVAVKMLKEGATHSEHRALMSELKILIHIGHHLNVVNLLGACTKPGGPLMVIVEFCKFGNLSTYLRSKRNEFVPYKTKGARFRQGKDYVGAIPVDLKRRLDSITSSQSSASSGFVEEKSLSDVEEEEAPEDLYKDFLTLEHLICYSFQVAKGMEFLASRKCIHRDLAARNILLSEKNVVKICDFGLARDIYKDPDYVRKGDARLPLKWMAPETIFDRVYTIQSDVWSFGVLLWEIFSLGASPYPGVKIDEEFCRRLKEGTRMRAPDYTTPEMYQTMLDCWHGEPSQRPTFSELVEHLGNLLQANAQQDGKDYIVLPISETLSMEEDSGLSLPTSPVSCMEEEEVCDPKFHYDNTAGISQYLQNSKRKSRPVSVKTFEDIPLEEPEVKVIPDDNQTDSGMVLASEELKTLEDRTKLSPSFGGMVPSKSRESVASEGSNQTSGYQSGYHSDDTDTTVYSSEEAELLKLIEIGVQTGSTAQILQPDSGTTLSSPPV

The term IC50 denotes the concentration needed to halve the response being measured. On to `COc1cc2ncnc(Oc3ccc(CC(=O)Nc4nc(C)c(C)s4)nc3)c2cc1OC` [Example 1, N-(4,5-dimethylthiazol-2-yl)-2-[5-(6,7-dimethoxyquinazolin-4-yloxy)pyridin-2-yl]acetamide], for which the IC50 at KDR (VEGFR2) was roughly 2 nM; at PDGFRβ it was roughly 5 nM. In the same order, the values of `CCn1cc(NC(=O)Cc2ncc(Oc3ncnc4cc(OC)c(OC)cc34)cc2OC)cn1` [Example 7, N-(1-ethyl-1H-pyrazol-4-yl)-2-[5-(6,7-dimethoxyquinazolin-4-yloxy)-3-methoxypyridin-2-yl]acetamide] are greater than 3000 nM and roughly 10 nM. In the case of `COc1cc2ncnc(Oc3cnc(CC(=O)Nc4cnn(C(C)C)c4)c(OC)c3)c2cc1OC` [Example 8, N-(1-isopropyl-1H-pyrazol-4-yl)-2-[5-(6,7-dimethoxyquinazolin-4-yloxy)-3-methoxypyridin-2-yl]acetamide], the IC50 on KDR (VEGFR2) is greater than 5000 nM; on PDGFRβ it was roughly 5 nM. In the case of `CCn1cc(NC(=O)Cc2ccc(Oc3ncnc4cc(OC)c(OC)cc34)cn2)cn1` [N-(1-ethyl-1H-pyrazol-4-yl)-2-[5-(6,7-dimethoxyquinazolin-4-yloxy)pyridin-2-yl]acetamide], the IC50 on PDGFRβ is roughly 25 nM. Take `COc1cc2ncnc(Oc3ccc(CC(=O)Nc4cc(C)on4)nc3)c2cc1OC` [N-(5-methylisoxazol-3-yl)-2-[5-(6,7-dimethoxyquinazolin-4-yloxy)pyridin-2-yl]acetamide]: the results for the IC50 on KDR (VEGFR2) and at PDGFRβ were roughly 300 nM and roughly 25 nM, respectively.
